From patent US9499535B2, “Kinase inhibitors” (ORIGENIS GMBH, priority 2011, dated 2016)

How the values were obtained:
[1] = target: T1, SYK kinase (Homo sapiens, UniProt P43405); assay: SYK assay (OMNIA Kinase Assay, Invitrogen); assay type: biochemical; conditions: apparent Ki calculated from the IC50 using the Cheng-Prusoff equation; 1 mM ATP, 10 μM Peptide Substrate; read-out: SYK Activities: Ki
T1 construct: purchased Invitrogen, Carlsbad
In short: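 Reaction velocities were measured from kinetic fluorescence reads (360/485 nm, every 30 s over 30 min) of Mg2+-chelated SOX signal. Conditions were 1 mM ATP, 10 μM Omnia Tyr 7 peptide and 0.2 mM DTT at 30° C. Sigmoidal IC50 fits were converted to apparent Ki using Cheng-Prusoff.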

[2] = target: LRRK2 (Homo sapiens, UniProt Q5S007); assay: LRRK2 assay (LanthaScreen Eu Kinase Binding Assay); conditions: 5 nM LRRK2, 10 nM tracer 236, RT 1 h; read-out: LRRK2 Activites: IC50
In short: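 IC50 was derived from a sigmoidal dose-response fit with variable slope, plotting emission ratio against inhibitor concentration. The read-out is loss of FRET between a europium-labelled anti-tag antibody on the kinase and a tracer displaced by inhibitor.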

[3] = target: MYLK (Homo sapiens, UniProt Q15746); assay: MYLK assay (LanthaScreen Eu Kinase Binding Assay); conditions: 5 nM MYLK, 30 nM tracer 236, RT 1 h; read-out: MYLK Activites: IC50
In short: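 TR-FRET tracer-displacement binding: 5 nM MYLK with 2 nM Eu-anti-GST antibody and 30 nM tracer 236 in kinase buffer A, 1 h at RT. The 665/615 nm emission ratio was plotted against inhibitor concentration; IC50 from variable-slope sigmoidal fit.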

Sequence of LRRK2 (Q5S007 970-2527 limits assumed): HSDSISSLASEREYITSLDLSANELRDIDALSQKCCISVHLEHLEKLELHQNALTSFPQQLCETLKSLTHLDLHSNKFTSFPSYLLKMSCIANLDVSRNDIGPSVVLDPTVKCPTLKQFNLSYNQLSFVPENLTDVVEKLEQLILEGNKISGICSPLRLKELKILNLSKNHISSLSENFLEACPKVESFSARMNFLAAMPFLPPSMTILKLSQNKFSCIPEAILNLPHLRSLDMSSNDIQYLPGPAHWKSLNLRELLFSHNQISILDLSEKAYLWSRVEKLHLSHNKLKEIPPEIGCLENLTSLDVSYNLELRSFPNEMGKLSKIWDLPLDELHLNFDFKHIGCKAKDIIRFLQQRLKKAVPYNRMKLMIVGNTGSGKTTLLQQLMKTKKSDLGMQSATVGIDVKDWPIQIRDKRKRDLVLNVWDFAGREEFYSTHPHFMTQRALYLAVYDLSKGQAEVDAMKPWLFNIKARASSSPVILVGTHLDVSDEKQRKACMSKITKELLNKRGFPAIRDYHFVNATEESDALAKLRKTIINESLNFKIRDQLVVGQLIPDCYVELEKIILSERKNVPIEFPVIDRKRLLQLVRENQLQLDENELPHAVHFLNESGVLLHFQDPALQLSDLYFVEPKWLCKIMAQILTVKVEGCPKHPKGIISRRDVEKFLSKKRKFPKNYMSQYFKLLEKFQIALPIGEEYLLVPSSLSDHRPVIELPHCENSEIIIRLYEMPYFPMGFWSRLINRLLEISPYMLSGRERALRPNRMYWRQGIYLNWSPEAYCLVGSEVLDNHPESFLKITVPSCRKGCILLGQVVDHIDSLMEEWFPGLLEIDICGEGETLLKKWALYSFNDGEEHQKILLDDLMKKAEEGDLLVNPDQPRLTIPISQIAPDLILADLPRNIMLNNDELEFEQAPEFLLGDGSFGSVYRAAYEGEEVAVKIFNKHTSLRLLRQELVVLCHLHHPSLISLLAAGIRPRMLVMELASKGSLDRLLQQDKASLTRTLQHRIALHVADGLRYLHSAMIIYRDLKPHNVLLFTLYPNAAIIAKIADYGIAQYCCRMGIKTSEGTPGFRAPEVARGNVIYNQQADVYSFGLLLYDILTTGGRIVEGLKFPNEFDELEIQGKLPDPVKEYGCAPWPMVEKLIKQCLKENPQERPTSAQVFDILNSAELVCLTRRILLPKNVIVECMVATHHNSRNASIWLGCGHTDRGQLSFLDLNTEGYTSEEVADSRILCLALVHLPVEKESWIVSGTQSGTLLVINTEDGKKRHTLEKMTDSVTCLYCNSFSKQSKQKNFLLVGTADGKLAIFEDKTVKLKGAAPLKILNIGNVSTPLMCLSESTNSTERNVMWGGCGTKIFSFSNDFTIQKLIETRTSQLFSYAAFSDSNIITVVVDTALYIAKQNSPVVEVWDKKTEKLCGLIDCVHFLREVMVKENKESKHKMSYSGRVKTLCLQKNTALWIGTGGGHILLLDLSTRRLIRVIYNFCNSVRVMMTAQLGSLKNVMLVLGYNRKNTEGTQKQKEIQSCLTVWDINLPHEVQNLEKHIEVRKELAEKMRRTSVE
Sequence of MYLK (Q15746 whole entry): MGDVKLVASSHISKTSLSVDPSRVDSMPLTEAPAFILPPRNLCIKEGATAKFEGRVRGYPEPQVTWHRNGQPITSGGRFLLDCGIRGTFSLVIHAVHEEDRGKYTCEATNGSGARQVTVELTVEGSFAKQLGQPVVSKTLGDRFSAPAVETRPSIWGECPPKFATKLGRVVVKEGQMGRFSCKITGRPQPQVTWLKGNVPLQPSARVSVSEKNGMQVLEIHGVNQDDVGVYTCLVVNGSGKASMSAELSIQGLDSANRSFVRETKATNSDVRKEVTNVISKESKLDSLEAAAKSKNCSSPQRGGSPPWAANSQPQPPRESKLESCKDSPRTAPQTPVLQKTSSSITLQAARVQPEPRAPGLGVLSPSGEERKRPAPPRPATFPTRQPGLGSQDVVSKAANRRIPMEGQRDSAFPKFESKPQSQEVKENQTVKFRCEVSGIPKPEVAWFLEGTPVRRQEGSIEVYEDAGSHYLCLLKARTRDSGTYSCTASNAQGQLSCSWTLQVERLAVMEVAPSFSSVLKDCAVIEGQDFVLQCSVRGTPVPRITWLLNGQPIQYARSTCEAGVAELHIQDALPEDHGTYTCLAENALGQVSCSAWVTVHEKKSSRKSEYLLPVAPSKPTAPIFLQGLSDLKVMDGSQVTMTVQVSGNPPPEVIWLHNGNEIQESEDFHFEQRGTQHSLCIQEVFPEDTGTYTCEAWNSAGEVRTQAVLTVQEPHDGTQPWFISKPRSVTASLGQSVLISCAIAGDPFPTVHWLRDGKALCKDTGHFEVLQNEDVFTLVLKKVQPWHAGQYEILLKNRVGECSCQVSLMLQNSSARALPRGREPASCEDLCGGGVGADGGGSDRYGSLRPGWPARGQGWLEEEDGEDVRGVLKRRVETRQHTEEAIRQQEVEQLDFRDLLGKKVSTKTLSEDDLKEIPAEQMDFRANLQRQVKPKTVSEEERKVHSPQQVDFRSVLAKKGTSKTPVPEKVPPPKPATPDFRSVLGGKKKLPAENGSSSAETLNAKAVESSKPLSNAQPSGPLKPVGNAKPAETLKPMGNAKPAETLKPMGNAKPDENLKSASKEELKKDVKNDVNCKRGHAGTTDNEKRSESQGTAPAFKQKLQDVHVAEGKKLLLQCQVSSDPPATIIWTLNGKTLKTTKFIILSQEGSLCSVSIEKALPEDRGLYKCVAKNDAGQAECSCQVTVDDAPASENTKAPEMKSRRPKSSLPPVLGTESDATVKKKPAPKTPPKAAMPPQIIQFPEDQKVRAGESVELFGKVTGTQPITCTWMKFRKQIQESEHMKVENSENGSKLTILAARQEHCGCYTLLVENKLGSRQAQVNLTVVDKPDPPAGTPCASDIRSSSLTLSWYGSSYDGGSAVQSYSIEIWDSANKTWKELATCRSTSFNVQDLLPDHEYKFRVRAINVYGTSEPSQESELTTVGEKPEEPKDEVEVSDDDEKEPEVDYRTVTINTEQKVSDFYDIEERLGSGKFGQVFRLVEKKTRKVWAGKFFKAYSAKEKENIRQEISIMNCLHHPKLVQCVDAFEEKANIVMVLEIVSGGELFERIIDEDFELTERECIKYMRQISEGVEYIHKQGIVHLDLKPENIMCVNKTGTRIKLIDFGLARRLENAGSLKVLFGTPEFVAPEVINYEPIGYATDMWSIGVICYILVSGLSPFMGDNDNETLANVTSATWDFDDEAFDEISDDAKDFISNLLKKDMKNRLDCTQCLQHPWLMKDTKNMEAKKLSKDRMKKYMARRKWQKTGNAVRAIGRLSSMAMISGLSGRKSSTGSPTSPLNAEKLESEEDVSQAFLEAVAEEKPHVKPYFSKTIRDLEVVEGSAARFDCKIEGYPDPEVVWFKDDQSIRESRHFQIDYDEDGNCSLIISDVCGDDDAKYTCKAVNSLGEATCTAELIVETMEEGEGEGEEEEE

| Ki [1] | IC50 [2] | IC50 [3] | Structure (SMILES) |
| --- | --- | --- | --- |
| 10 to 100 nM | 100 to 1000 nM | < 5 µM | COc1ccc2nc(Nc3ccc(N4CCN(C)CC4)c(Cl)c3)c3n[nH]cc3c2c1 [Example #195, [3-Chloro-4-(4-methyl-piperazin-1-yl)-phenyl]-(8-methoxy-2H-pyrazolo[3,4-c]quinolin-4-yl)-amine] |
| 10 to 100 nM | 10 to 100 nM | < 5 µM | COc1cccc2nc(Nc3cc(C4CC4)[nH]n3)c3n[nH]cc3c12 [Example #199, (5-Cyclopropyl-1H-pyrazol-3-yl)-(9-methoxy-2H-pyrazolo[3,4-c]quinolin-4-yl)-amine] |
| 10 to 100 nM | 100 to 1000 nM | < 5 µM | COc1cccc2nc(Nc3ccc(N4CCN(C)CC4)cc3)c3n[nH]cc3c12 [Example #201, (9-Methoxy-2H-pyrazolo[3,4-c]quinolin-4-yl)-[4-(4-methyl-piperazin-1-yl)-phenyl]-amine] |
| 10 to 100 nM | 10 to 100 nM | < 5 µM | COc1cccc2nc(Nc3ccc(N4CCOCC4)cc3)c3n[nH]cc3c12 [Example #202, (9-Methoxy-2H-pyrazolo[3,4-c]quinolin-4-yl)-(4-morpholin-4-yl-phenyl)-amine] |
| 10 to 100 nM | 10 to 100 nM | < 5 µM | COc1cccc2nc(Nc3ccc4cn[nH]c4c3)c3n[nH]cc3c12 [Example #203, (1H-Indazol-6-yl)-(9-methoxy-2H-pyrazolo[3,4-c]quinolin-4-yl)-amine] |
| 10 to 100 nM | 100 to 1000 nM | < 5 µM | COc1ccc2nc(Nc3ccc(OC)nc3)c3n[nH]cc3c2c1 [Example #206, (8-Methoxy-2H-pyrazolo[3,4-c]quinolin-4-yl)-(6-methoxy-pyridin-3-yl)-amine] |
| 10 to 100 nM | 100 to 1000 nM | < 5 µM | Cc1[nH]nc2c(Nc3ccc(N4CCN(C)CC4)cc3)nc3ccccc3c12 [Example #208, [4-(4-Methyl-piperazin-1-yl)-phenyl]-(1-methyl-2H-pyrazolo[3,4-c]quinolin-4-yl)-amine] |
| < 10 nM | 10 to 100 nM | < 5 µM | Cc1[nH]nc2c(Nc3ccc4cn[nH]c4c3)nc3ccccc3c12 [Example #209, (1H-Indazol-6-yl)-(1-methyl-2H-pyrazolo[3,4-c]quinolin-4-yl)-amine] |
| 100 to 1000 nM | 100 to 1000 nM | < 5 µM | COc1ccc2nc(Nc3cccc(N4CCNCC4)c3)c3n[nH]cc3c2c1 [Example #221, (8-Methoxy-2H-pyrazolo[3,4-c]quinolin-4-yl)-(3-piperazin-1-yl-phenyl)-amine] |
| < 10 nM | 100 to 1000 nM | < 5 µM | CCN(CC)CCNC(=O)c1ccc(Nc2nc3ccc(OC)cc3c3c[nH]nc23)cc1 [Example #222, N-(2-Diethylamino-ethyl)-4-(8-methoxy-2H-pyrazolo[3,4-c]quinolin-4-ylamino)-benzamide] |
| 100 to 1000 nM | 100 to 1000 nM | < 5 µM | COc1ccc2nc(Nc3cnc(N4CCN(C)CC4)nc3)c3n[nH]cc3c2c1 [Example #223, (8-Methoxy-2H-pyrazolo[3,4-c]quinolin-4-yl)-[2-(4-methyl-piperazin-1-yl)-pyrimidin-5-yl]-amine] |
| 10 to 100 nM | 100 to 1000 nM | < 5 µM | COc1ccc2nc(Nc3cccc(N4CCN(C)CC4)c3)c3n[nH]cc3c2c1 [Example #228, (8-Methoxy-2H-pyrazolo[3,4-c]quinolin-4-yl)-[3-(4-methyl-piperazin-1-yl)-phenyl]-amine] |
| 100 to 1000 nM | 100 to 1000 nM | < 5 µM | COc1ccc2nc(Nc3cccc(OCCN4CCNCC4)c3)c3n[nH]cc3c2c1 [Example #229, (8-Methoxy-2H-pyrazolo[3,4-c]quinolin-4-yl)-[3-(2-piperazin-1-yl-ethoxy)-phenyl]-amine] |
| 100 to 1000 nM | 100 to 1000 nM | < 5 µM | COc1ccc2nc(Nc3cnc4c(c3)CN(C)CC4)c3n[nH]cc3c2c1 [Example #230, (8-Methoxy-2H-pyrazolo[3,4-c]quinolin-4-yl)-(6-methyl-5,6,7,8-tetrahydro-[1,6]naphthyridin-3-yl)-amine] |
